Source: US20040192734A1, “4-(3-aminomethylphenyl)piperidin-1-yl]-[5-(2-fluorophenylethynyl)furan-2-yl]-methanone as an inhibitor of mast cell tryptase” (AVENTIS PHARMACEUTICALS INC., priority 2002, published 2004)
“And” between values parts separate entries of the source, which are not always exact repeats. Identical values can stand only once. Counter-ions that a name gives are not always drawn. Like-named read-outs stand apart in the source and are kept apart here. Each block holds one molecule with its values, some of them ahead of it.

Assays:
[1] = molecular target: T1, recombinant human β tryptase (Homo sapiens, UniProt Q15661); assay: β-Tryptase Inhibition (chromogenic assay); type: biochemical; conditions: for Ki: chromogenic assay, substrate S2366 0.5 mM, room temperature, Ki calculated from IC50
T1 construct: made in house; host or cells: yeast cells
T1 sequence (Q15661 31-275): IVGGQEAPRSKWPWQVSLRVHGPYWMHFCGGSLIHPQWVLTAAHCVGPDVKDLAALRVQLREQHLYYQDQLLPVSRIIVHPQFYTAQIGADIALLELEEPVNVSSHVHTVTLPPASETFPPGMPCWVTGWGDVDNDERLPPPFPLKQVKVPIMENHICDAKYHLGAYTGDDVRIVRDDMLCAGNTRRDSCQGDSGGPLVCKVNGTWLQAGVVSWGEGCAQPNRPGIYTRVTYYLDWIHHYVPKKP
Text: Tr0yptase inhibition activity is confirmed using either isolated human lung tryptase or recombinant human β tryptase expressed in yeast cells. Essentially equivalent results are obtained using isolated native enzyme or the expressed enzyme. The assay procedure employs a 96 well microplate (Costar 3590) using L-pyroglutamyl-L-prolyl-L-arginine-para-nitroanilide (S2366: Quadratech) as substrate (essentially as described by McEuen et. al. Biochem Pharm, 1996, 52, pages 331-340). Assays are performed at room temperature using 0.5 mM substrate (2×Km) and the microplate is read on a microplate reader (Beckman Biomek Plate reader) at 405 nm wavelength. The inhibition constants (Ki) for the compound of the present invention and other structurally related compounds, are set forth in Table 1.
Materials and Methods for Trtase Primary Screen (Chromogenic Assay)
S2366 (Stock solutions of 2.5 mM).
Purified recombinant beta Tryptase Stocks of 310 μg/mL.
Add 60 μL of diluted substrate (final concentration of 500 μM in assay buffer) to each well
Add compound in duplicates, final concentration of 20 μM, volume 20 μL
Add enzyme at a final concentration of 50 ng/mL in a volume of 20 μL
Total volume for each well is 100 μL
Agitate briefly to mix and incubate at room temp in the dark for 30 minutes
Read absorbencies at 405 nM
Protocol (IC50 and Ki Determination)
The protocol is essentially the same as above except that the compound is added in duplicates at the following final concentrations: 0.01, 0.03, 0.1, 0.3, 1, 3, 10 uM (All dilutions carried out manually). For every assay, whether single point or IC50 determination, a standard compound is used to derive IC50 for comparison. From the IC50 value, the Ki can be calculated using the following formula:
Ki=IC50/(1+[Substrate]/Km).

[2] = system: Airway Hyperresponsiveness (AHR) to histamine in sensitized guinea pigs; assay: Guinea Pig Model of Airway Hyperreactivity; type: in vivo; conditions: for protective effect as measured by airway resistance / protective effect as measured by lung compliance: intravenous dosing at 0.3, 1 and 3 mg/kg; for Intravenous ID50 Dynamic Lung Compliance: Cdyn40, histamine challenge; for Intravenous ID50 Dynamic Lung Compliance / Intravenous ID50 Airway Hyperresponsiveness: ovalbumin-sensitized guinea pigs; for Intravenous ID50 Airway Hyperresponsiveness: airway resistance (RL300), histamine challenge
[3] = system: Airway Hyperresponsiveness (AHR) to histamine in sensitized guinea pigs; assay: Guinea Pig Model of Airway Hyperreactivity; type: in vivo; conditions: for protection against AHR to histamine, airway resistance: oral dosing, Structure (III) where X=H dosed at 3, 10, and 30 mg/kg; for protection against AHR to histamine, airway resistance / Oral ID50 Dynamic Lung Compliance / Oral ID50 Airway Hyperresponsiveness: 2 hours prior to ovalbumin challenge; for Oral ID50 Dynamic Lung Compliance: Cdyn40; for Oral ID50 Airway Hyperresponsiveness: airway resistance (RL300)
Protocol: Sensitization and drug treatment: Male Hartley guinea pigs (225-250g) are sensitized with ovalbumin (0.5 mL of 1% solution, i.p. and s.c.). On day 4, animals received a booster injection (i.p.) of 0.5 mL of 1% ovalbumin. On day 21, animals are orally dosed (2 ml/kg) with either vehicle (0.5% methylcellulose/0.2% Tween 80) or test compound 2 hours prior to antigen challenge. Thirty minutes before antigen challenge the animals are also injected with mepyramine (30 mg/kg, i.p.) to prevent anaphylactic collapse. Animals are then exposed for 5 minutes to an aerosol of either saline (control animals) or 1% ovalbumin using a deVilbiss Ultraneb nebulizer.
AHR measurement: Eighteen to twenty four hours after challenge, animals are anesthetized with a combination of ketamine (133 mg/kg) and xylazine (24 mg/kg) given intramuscularly, surgically prepared and then mounted in a whole body plethysmograph for lung function measurement. Animals were connected to Ugo-Basile ventilators delivering a tidal volume of 1 mL/100 g at a rate of 50 breaths/minute via a tracheal cannula. The jugular vein is also cannulated for histamine challenge. A water filled oesophageal cannula is placed such that transpulmonary pressure could be recorded. Transpulmonary pressure is measured as the difference between the tracheal and esophageal cannulas using a differential pressure transducer. The volume, airflow, and transpulmonary pressure signals are monitored using a pulmonary analysis system (Buxco XA software) and used to calculate pulmonary resistance (cm H2O/mL/s) and dynamic compliance (mL/cm H2O). Airway resistance and dynamic compliance were computed on a breath by breath basis. Histamine is administered intravenously and reactivity to increasing concentrations (0.1-10 μg/kg) assessed. ID50's are estimated from the RL300 (histamine concentration required to 300% increase in lung resistance) and Cdyn40 (histamine concentration required to induce a 40% decrease in dynamic lung compliance) parameters deduced from the individual […] a histamine dose-response curves.

[4] = molecular target: T1, recombinant human β tryptase; conditions: greatest β-Tryptase inhibitory potency disclosed in U.S. application Ser. No. 09/843,126; cited from earlier work
[5] = listed as compound of the present invention, trifluoroacetate

SMILES: NCc1cccc(C2CCN(C(=O)c3cccc(C#Cc4ccccc4)c3)CC2)c1.O=C(O)C(F)(F)F [Structure (II) where X = H, [4-(3-aminomethylphenyl)piperidin-1-yl]-(3-phenylethynylphenyl)methanone trifluoroacetate]
- Ki [1]: 106 nM
- protective effect as measured by airway resistance [2]: uniformly ineffective
- protective effect as measured by lung compliance [2]: does not show any protective effects
- Intravenous ID50 Dynamic Lung Compliance [2]: >3.0 mg/kg
- Intravenous ID50 Airway Hyperresponsiveness [2]: >3.0 mg/kg

SMILES: NCc1cccc(C2CCN(C(=O)c3cccc(C#Cc4ccccc4F)c3)CC2)c1.O=C(O)C(F)(F)F [Structure (II) where X=F, [4-(3-aminomethylphenyl)piperidin-1-yl]-[3-(2-fluorophenylethynyl)phenyl]methanone trifluoroacetate]
- fold increase in β-Tryptase inhibitory potency ([1]; Structure (II) where X=F versus Structure (II) where X=H): 1.09 fold
- Ki [1]: 97 nM

- Ki [1]: 7.6 to 9.7 nM and 7.6 nM and 9.7 nM
SMILES: NCc1cccc(C2CCN(C(=O)c3ccc(C#Cc4ccccc4F)o3)CC2)c1 [Structure (III) where X = F, [4-(3-Aminomethylphenyl)piperidin-1-yl]-[5-(2-fluorophenylethynyl)furan-2-yl]-methanone trifluoroacetate]
- protection against AHR to histamine, airway resistance [3]: significantly protects against AHR to histamine
- Oral ID50 Dynamic Lung Compliance [3]: 1 to 2 mg/kg
- Oral ID50 Airway Hyperresponsiveness [3]: 1 to 2 mg/kg
- effect on basal airway resistance ([3]; sensitized guinea pigs): no effect
- effect on basal dynamic lung compliance ([3]; sensitized guinea pigs): no effect
- protective effect as measured by airway resistance [2]: protective at all doses
- protective effect as measured by lung compliance [2]: protective at all doses
- Intravenous ID50 Dynamic Lung Compliance [2, 5]: < 0.3 mg/kg
- Intravenous ID50 Dynamic Lung Compliance ([2]; trifluoroacetate): <0.3 mg/kg
- Intravenous ID50 Airway Hyperresponsiveness [2, 5]: < 0.3 mg/kg
- Intravenous ID50 Airway Hyperresponsiveness ([2]; trifluoroacetate): <0.3 mg/kg

SMILES: NCc1cccc(C2CCN(C(=O)c3ccc(C#Cc4ccccc4)o3)CC2)c1.O=C(O)C(F)(F)F [Structure (III) where X = H, [4-(3-aminomethylphenyl)piperidin-1-yl]-(5-phenylethynylfuran-2-yl)methanone trifluoroacetate]
- effect on lung compliance ([3]; oral dosing at 3, 10, and 30 mg/kg): No effect
- protection against AHR to histamine, airway resistance [3]: protective on airway resistance, but the effects are not statistically significant
- Oral ID50 Dynamic Lung Compliance [3]: >30 mg/kg
- Oral ID50 Airway Hyperresponsiveness [3]: Protective at 3,
- fold increase in β-Tryptase inhibitory potency ([1]; Structure (III) where X=H versus Structure (II) where X=H): 3.42 fold
- Ki [1]: 31 nM
- protective effect as measured by airway resistance [2]: reversed airway resistance at the highest dose
- protective effect as measured by lung compliance [2]: does not show any protective effects
- Intravenous ID50 Dynamic Lung Compliance [2]: >3.0 mg/kg
- Intravenous ID50 Airway Hyperresponsiveness [2]: 1 to 3 mg/kg

SMILES: NCc1cccc(C2CCN(C(=O)c3ccc(Cl)c(Cl)c3)CC2)c1 [[4-(3-Aminomethylphenyl)piperidin-1-yl]-(3,4-dichlorophenyl) methanonetrifluoroacetate]
- Ki [4]: 31 nM
